Literature values in PMC13064256, “Integrative preclinical strategy for pharmacokinetic profiling and candidate selection of 3-hydroxypropanamidines: a promising antimalarial class” (Malaria Journal, 2026).

Design: method as in PMID 31898492

Clint in HLMs: 26.9 µL/min/mg
SMILES: CCCCN(CCCC)CCC(O)c1cc2c(Cl)cc(Cl)cc2c2cc(C(F)(F)F)ccc12 (stereo not shown) [halofantrine]
